From article PMC11503492, “Activity-Based DNA-Encoded Library Screening for Selective Inhibitors of Eukaryotic Translation” (ACS Central Science, 2024)
Entries after “also recorded” stand apart in the source; their conditions may differ.

Legend:
[1] = tested on: MST1[1:39]-GFP translation; assay: WG IVTT activity assay, MST1[1:39]-GFP template; format: biochemical, wheat germ; conditions: WG IVTT dose-response
Method: page 21: 421 region sequences were matched to an alpha numeric DNA region identifier (11[…], respectively), while allowing a 1-bp mutation per encoding region. 423 No insertions or deletions were tolerated. […] A sum of UMI counts for all remaining unique combinations 429 of encoding region identifiers was then determined using a UMI aggregation algorithm; 430 1 bp mutations were considered the same UMI. Encoding region identifiers were then 431 converted to library BB identifiers per the library design with an associated UMI count. 432 Any encoding region/ bead-specific barcode combinations with a UMI count below a 433 manually determined threshold (10) were discarded. The remaining ”valid beads” were 434 aggregated by cycle 1/2 BB combinations and the number of unique encoding regions 435 observed for each BB combination defined the k-class for that BB combination.S8 436 Microplate IVTT Assays 437 Wheat germ lysate IVTT plate assays were prepared as 5 μL reactions. […] Template (1 μL) was added and reaction 440 progress was immediately monitored (λex = 480 nm, λem = 530 nm, 27 °C, 2 h). […] activity was calculated using the slope of fluorescence increase over time (at 15-30 442 min post reaction initiation) for compound samples relative to that of the DMSO vehicle 443 control. […]

[2] = tested on: PCSK9 expression in HepG2 cells; assay: HepG2 cellular assay, PCSK9 Western blot; format: cell-based; conditions: 16 h treatment, 5 or 50 µM, triplicate, normalized to DMSO
Method: Reaction buffer (1 µL) and template (0.5 µL) were added and reaction progress was
Relative activity was cal-
450 culated using the slope of fluorescence increase over time (15–30 min post reaction initia-
Gene blocks were purchased from IDT
Digestion with Sgf I and PmeI allowed for
Sequence-verified plasmids
460 were cloned into DH5α E. coli for standard large-scale DNA plasmid preparation.
Gene blocks were purchased
Digestion with NdeI and XhoI
470 (4.5 g/L high-glucose DMEM, 2 mM L-glutamine, 10% fetal bovine serum, 1% penicillin-
Cells were lysed (100 µL RIPA buffer,
Protein lysates (24 µg) were separated by denaturing polyacrylamide
480 PCSK9 rabbit monoclonal antibody, 5% BSA in PBS-T). The PCSK9 probed membrane
HRP-labeled bands were visualized
Figure S12. […] PCSK9 expression in HepG2 cells
treated 16 h with PF846 or screening hit 8 (5 or 50 µM) or vehicle control (DMSO) was analyzed in triplicate
(also on this page, place not known: S12894 GAPDH pro m DMSO 5 μM DMSO μM 5 μM 50 μM PCSK9 PF846 hit8 50)
(§1) (1 picture or pasted object on this page, not shown here)

[3] = tested on: PCSK9[1:33]-GFP in vitro transcription; assay: PCSK9[1:33]-GFP T7 in vitro transcription reaction, agarose gel; format: biochemical; conditions: PCSK9[1:33]-GFP T7 transcription, 1.5% agarose gel
Method: Figure S10. Activity of compounds 8 and 9 on transcription. (A) Screening hits 8 and 9 were analyzed in dose-response IVTT activity assays of PCSK9[1:33]-GFP initiated with DNA (black) and RNA (gray) template. (B) Products of PCSK9[1:33]-GFP T7 transcription reactions incubated with DMSO, screening hits 8 and 9, or PF846 were visualized on a 1.5% agarose gel
as §1

| Compound | activity on MST1[1:39]-GFP translation (in words) [1] | PCSK9 protein levels in HepG2 cells (in words) [2] | effect on in vitro transcription product (in words) [3] |
| --- | --- | --- | --- |
| Cc1cccc2ccnc(N(C(=O)[C@H]3CCCN(C(=O)c4cccc5c(C#N)c[nH]c45)C3)[C@@H]3CCCNC3)c12 [Compound 8] | inactive | significantly reduced; also recorded: lower levels of endogenous PCSK9 |  |
| Cc1cccc2ccnc(N(C(=O)C3CCN(C(=O)c4cccc5c(C#N)c[nH]c45)CC3)[C@@H]3CCCNC3)c12 [Compound 9] |  |  | no visible transcript product; also recorded: completely eliminates RNA yield; also recorded: nonselectively inhibits transcription |
